Assay results reported in patent publication US20160318856A1, “Substituted Urea eIF2alpha Kinase Activators” (THE BRIGHAM AND WOMEN'S HOSPITAL, INC., priority 2013, published 2016).
Where two headings read alike, the source gives them in different places.

Assays:
[1] = system: eIF2α phosphorylation (eIF2•GTP•Met-tRNAi ternary complex; HRI activation); assay: surrogate dual luciferase eIF2α phosphorylation (ternary complex) assay; assay type: cell-based, human; details: for maximal fold induction: Homo sapiens, read-out: Emax (F/R)
Description: The dual luciferase expression vector and other plasmids used for these studies were previously described (see, for example, Ziegeler, G. et al. Journal of Biological Chemistry 2010, 285(20), 15408-19). The ternary complex assay, surrogate of eIF2α phosphorylation, has been described elsewhere (see, for example, Chen, T. et al. Nature Chemical Biology 2011, 7(9), 610-6). Briefly, the pBISA vector, which contains seven copies of the tetracycline-regulated transactivator response element (TRE), is flanked on both sides by minimal human cytomegalovirus (CMV) minimal promoters allowing bi-directional transcription and two MCSs (multiple cloning sites). Firefly and renilla luciferases were subcloned into MCS-I and MCS-II, respectively. This plasmid, designated pBISA-DL, transcribes two mRNAs that contain the 90 nucleotide plasmid derived 5′UTR (same sequence in both mRNAs), and the ORF encoding either firefly or renilla luciferase followed by a polyadenylation sequence. This plasmid was further modified by inserting the 5′UTR of ATF-4 mRNA into MCS-I in front of the firefly luciferase mRNA. Transcription from this unit generates an mRNA that contains the firefly luciferase ORF preceded by a 5′UTR composed of 90 nucleotides derived from the plasmid and 267 nucleotides derived from the 5′UTR of ATF-4 mRNA. Transcription from the other unit generates an mRNA that contains the renilla luciferase ORF proceeded only by the 90-nucleotide plasmid-derived sequence in the 5′UTR (pBISA-DL (ATF-4)) (see, for example, Chen, T. et al. Nature Chemical Biology 2011, 7(9), 610-6).
Cells expressing firefly and renilla luciferases were assayed with a dual glow luciferase assay kit, per manufacturer's instruction (Promega Inc., Madison, Wis.). The data calculations were carried out as the ratio of firefly to renilla luciferase signal.
A library of 1900 urea compounds was screened in the surrogate dual luciferase eIF2α phosphorylation (ternary complex) assay. This library was originally assembled and screened for inhibition of sEH by Hammock's group at UC-Davis (see, for example, Chen, T. et al. Nature Chem Biol 2011, 7, 610-616; Ziegeler, G et al. J Biol Chem 2010, 285, 15408-15419). We developed this assay in order to identify compounds that activate HRI, taking advantage of the fact that activated HRI phosphorylates eIF2α thereby reducing the amount of the eIF2•GTP•Met-tRNAi ternary complex that results in inhibition of translation of many mRNAs but paradoxically increases translation of some mRNAs that contain multiple upstream ORF (uORF) in their 5′ untranslated regions (UTRs). In our assay, firefly (F) luciferase mRNA is fused to 5′UTR of activating transcription factor 4 (ATF-4) mRNA that has multiple uORFs while renilla (R) luciferase mRNA is fused to a 5′UTR lacking any uORFs. Compounds that reduce the amount of the ternary complex, such as those activating HRI, would increase F luciferase expression while decreasing the R luciferase expression, resulting in an increased F/R luciferase ratio. To calculate the activity scores, the F/R ratios for every compound-treated wells were normalized to vehicle-treated (DMSO) wells that was arbitrarily set at 1 (F/R=1).

[2] = system: CRL-2813 human melanoma cancer cells; assay: cell proliferation (SRB) assay, CRL-2813; assay type: cell-based; details: read-out: IC50
Description: Cells were seeded in 96-well plates and maintained for 5 days in the presence of 0.5 to 20 μM of individual compound, and cell proliferation was measured by the sulforhodamine B (SRB) assay as described previously (see, for example, Palakurthi, S. S. et al. Cancer Research 2000, 60(11), 2919-2925). Briefly, at the end of a 5-day treatment, cells were fixed in 10% cold trichloroacetic acid. Cell number was estimated by measuring the remaining bound dye of sulforhodamine B after washing. The percentage of growth was calculated by using the equation: 100×[(T−T0)/(C−T0)], where T and C represent the absorbance in treated and control cultures at Day 5, and T0 at time zero, respectively. If T is less than T0, cell death has occurred and can be calculated from 100×[(T−T0)/T0].

[3] = Homo sapiens, CRL2813, cell proliferation assay, Table 3, cell line not named, values equal CRL-2813 values of Table 8
[4] = cell proliferation assay, Table 2, cell line not named
[5] = ternary complex assay, F/R normalized to vehicle (DMSO = 1)
[6] = cell proliferation assay (SRB, 5 days), cell line not named in Table 1, values equal CRL-2813 values of Tables 5/8

SMILES: O=C(Nc1cccc(C(F)(F)F)c1)NC1CCC(Oc2ccccc2C(F)(F)F)CC1 (stereo not drawn) [Compound I-19, 1-(4-(2-(Trifluoromethyl)phenoxy)cyclohexyl)-3-(3-(trifluoromethyl)phenyl)urea]
- maximal fold induction ([1]; surrogate eIF2α phosphorylation assay, Table 3): 15.7
- IC50 [2, 3]: 1.4 ± 0.3 µM

SMILES: O=C(Nc1cccc(Br)c1)N[C@H]1CC[C@H](OCc2c(F)cccc2F)CC1 [II-3m]
- Emax (F/R) ([1]; 7.5 μM compound): 1.07 F/R
- Emax (F/R) ([1]; 15 μM compound): 1.04 F/R
- Emax (F/R) ([1]; 30 μM compound): 0.98 F/R
- IC50 [2, 4]: > 20 µM

SMILES: O=C(Nc1ccccc1F)NC1CCC(Oc2ccc(F)cc2)CC1 (stereo not drawn) [Compound I-1o]
- Emax (F/R) [1, 5]: 2.10 F/R
- IC50 [2, 6]: 17.5 ± 1.1 µM

SMILES: O=C(Nc1ccccc1Cl)N[C@H]1CC[C@H](OCc2c(F)cccc2F)CC1 [II-2o]
- Emax (F/R) ([1]; 7.5 μM compound): 0.81 F/R
- Emax (F/R) ([1]; 15 μM compound): 0.69 F/R
- Emax (F/R) ([1]; 30 μM compound): 0.81 F/R
- IC50 [2, 4]: > 20 µM

SMILES: O=C(Nc1cccc([N+](=O)[O-])c1)NC1CCC(Oc2ccc(F)cc2)CC1 (stereo not drawn) [Compound I-9m]
- Emax (F/R) [1, 5]: 7.47 F/R
- IC50 [2, 6]: 6.7 ± 0.7 µM

SMILES: Cc1cccc(NC(=O)NC2CCC(Oc3ccc(F)cc3)CC2)c1 (stereo not drawn) [Compound I-7m]
- Emax (F/R) [1, 5]: 4.73 F/R
- IC50 [2, 6]: 14.4 ± 0.5 µM

SMILES: COC(=O)c1ccc(NC(=O)NC2CCC(Oc3ccc(F)cc3)CC2)cc1 (stereo not drawn) [Compound I-11p]
- Emax (F/R) [1, 5]: 3.97 F/R
- IC50 [2, 6]: 11.6 µM

SMILES: O=C(Nc1cccc(C(F)(F)F)c1)NC1CCC(Oc2ccc(F)cc2)CC1 (stereo not drawn) [Compound I-5m]
- maximal fold induction [1, 5]: 11.8
- IC50 ([2]; Homo sapiens, CRL2813, 120 h, cell proliferation assay (SRB, 5 days), cell line not named in Table 1, values equal CRL-2813 values of Tables 5/8): 2.6 ± 0.3 µM
- IC50 [2, 3]: 2.6 ± 0.6 µM

SMILES: O=C(Nc1cccc(Br)c1)NC1CCC(Oc2ccc(F)cc2)CC1 (stereo not drawn) [Compound I-3m]
- Emax (F/R) [1, 5]: 9.52 F/R
- IC50 [2, 6]: 6.2 ± 0.3 µM

SMILES: O=C(Nc1ccc(C(=O)O)cc1)NC1CCC(Oc2ccc(F)cc2)CC1 (stereo not drawn) [Compound I-12p]
- Emax (F/R) [1, 5]: 3.49 F/R
- IC50 [2, 6]: 11.6 ± 1.8 µM

SMILES: O=C(Nc1cccc(C(F)(F)F)c1)NC1CCCCC1 [III-1, 1-Cyclohexyl-3-(3-(trifluoromethyl)phenyl)urea]
- maximal fold induction ([1]; surrogate eIF2α phosphorylation assay, Table 4): 1.87
- IC50 ([2]; Homo sapiens, CRL2813, cell proliferation assay, Table 4, cell line not named): 13.2 ± 2.3 µM

SMILES: O=C(Nc1ccccc1Cl)NC1CCC(Oc2ccc(F)cc2)CC1 (stereo not drawn) [Compound I-2o]
- Emax (F/R) [1, 5]: 5.37 F/R
- IC50 [2, 6]: 9.1 ± 1 µM

SMILES: O=C(Nc1cccc(C(F)(F)F)c1)N[C@H]1CC[C@H](OCc2c(F)cccc2F)CC1 [II-5m]
- Emax (F/R) ([1]; 7.5 μM compound): 1.13 F/R
- Emax (F/R) ([1]; 15 μM compound): 1.15 F/R
- Emax (F/R) ([1]; 30 μM compound): 1.11 F/R
- IC50 [2, 4]: > 20 µM

SMILES: O=C(Nc1ccccc1[N+](=O)[O-])N[C@H]1CC[C@H](OCc2c(F)cccc2F)CC1 [II-9o]
- Emax (F/R) ([1]; 7.5 μM compound): 0.96 F/R
- Emax (F/R) ([1]; 15 μM compound): 0.90 F/R
- Emax (F/R) ([1]; 30 μM compound): 0.74 F/R
- IC50 [2, 4]: > 20 µM

SMILES: COc1ccc(NC(=O)N[C@H]2CC[C@H](OCc3c(F)cccc3F)CC2)cc1 [II-8p]
- Emax (F/R) ([1]; 7.5 μM compound): 0.74 F/R
- Emax (F/R) ([1]; 15 μM compound): 0.71 F/R
- Emax (F/R) ([1]; 30 μM compound): 0.68 F/R
- IC50 [2, 4]: > 20 µM

SMILES: O=C(Nc1cccc(Cl)c1)N[C@H]1CC[C@H](OCc2c(F)cccc2F)CC1 [II-2m]
- Emax (F/R) ([1]; 7.5 μM compound): 0.79 F/R
- Emax (F/R) ([1]; 15 μM compound): 0.78 F/R
- Emax (F/R) ([1]; 30 μM compound): 0.75 F/R
- IC50 [2, 4]: > 20 µM

SMILES: O=C(Nc1ccc([N+](=O)[O-])cc1)N[C@H]1CC[C@H](OCc2c(F)cccc2F)CC1 [II-9p]
- Emax (F/R) ([1]; 7.5 μM compound): 0.87 F/R
- Emax (F/R) ([1]; 15 μM compound): 0.83 F/R
- Emax (F/R) ([1]; 30 μM compound): 0.83 F/R
- IC50 [2, 4]: > 20 µM

SMILES: O=C(Nc1ccc(F)cc1)NC1CCC(Oc2ccc(F)cc2)CC1 (stereo not drawn) [Compound I-1p]
- Emax (F/R) [1, 5]: 0.98 F/R
- IC50 [2, 6]: 20 ± 2.1 µM
